The values that follow come from patent US8007996B2, “Methods to identify protein arginine deiminase 4 inhibitors” (University of South Carolina, priority 2007, dated 2011).

“Also recorded” adds a separate entry of the source. Read-outs that look alike come from different tables or passages of the source.

The target in assay [1] is T1, PAD4 (Homo sapiens, UniProt Q9UM07).
T1 construct: made in house
Nature of the assay: ABPP-based inhibitor screen: competition with RFA for labelling of PAD4, gel fluorescence. Format: binding. The note with it: compound 2.5 mM, RFA 10 μM, PAD4 2 μM, 30 min at 37° C. How it is done: Very generally, potential inhibitor compounds are incubated individually with PAD4 in the presence of RFA for 30 min at 37° C.; at which point the reactions are quenched with SDS-PAGE loading dye and the mixtures are run on an SDS-PAGE gel. The amount of fluorescent PAD4 can then be quantified using a molecular imaging system. PAD4 inhibitors are readily identified by a decrease in fluorescence intensity.
RFA (10 μM final) and a particular compound from the library (2.5 mM final) were pre-incubated in Screening Buffer (500 μM TCEP, 10 mM CaCl2, 100 mM HEPES 7.6, 50 mM NaCl) for 10 min at 37° C. PAD4 (2 μM final) was then added to this mixture and incubated for 30 min at 37° C. The reaction was quenched with 6×SDS-PAGE Dye, incubated at 95° C. for 10 min, and then loaded onto a 12% SDS-PAGE gel. After electrophoresis, the gel was placed in destaining buffer (10% glacial acetic acid, 45% methanol, 45% ddH2O) until the fluorescence was measured using a fluorescence based molecular imaging station (Kodak Image Station 2000MM; excitation at 535 nm, emission at 600 nm). The protein gel was then stained and destained to ensure equal protein loading. A sample without a potential inhibitor was used as a control.

In assay [2] the target is T1, PAD4. Nature of the assay: Standard PAD4 assay (citrulline formation from BAEE), IC50 studies. The class given is biochemical. The text has this: Reactions were quenched by flash freezing in liquid N2. The amount of Cit produced was then quantified according to methods known in the art. […] Inhibition Studies.
Assay [3] has as its target T1, PAD4. Nature of the assay: Inhibition studies: kinetic analysis of PAD4 activity versus BAEE concentration. The conditions noted are these: for kinetic mechanism of PAD4 inhibition: Lineweaver-Burk plots; for Ki: BAEE 0-20 mM, 0.2 μM PAD4. Format: biochemical. How it is done: PAD4 activity was measured as a function of substrate concentration in the absence and presence of increasing concentrations of each inhibitor.
Briefly, the compounds were incubated in Reaction Buffer containing various concentrations of BAEE (0-20 mM) for 10 minutes at 37° C. PAD4 (0.2 μM) was then added to initiate the reaction and allowed to proceed for 6 additional minutes. Reactions were then quenched by flash freezing in liquid N2 and the amount of Cit produced was quantified.
[formula] using GraFit version 5.0.11.

In assay [4] the target is T1, PAD4. The description is as above. The class given is biochemical. The note with it: product formation linear with respect to time.
Where [5] appears, read: 1 mM BAEE, 0.2 μM PAD4, 15 min pre-incubation at 37° C.

T1 sequence (Q9UM07 whole entry): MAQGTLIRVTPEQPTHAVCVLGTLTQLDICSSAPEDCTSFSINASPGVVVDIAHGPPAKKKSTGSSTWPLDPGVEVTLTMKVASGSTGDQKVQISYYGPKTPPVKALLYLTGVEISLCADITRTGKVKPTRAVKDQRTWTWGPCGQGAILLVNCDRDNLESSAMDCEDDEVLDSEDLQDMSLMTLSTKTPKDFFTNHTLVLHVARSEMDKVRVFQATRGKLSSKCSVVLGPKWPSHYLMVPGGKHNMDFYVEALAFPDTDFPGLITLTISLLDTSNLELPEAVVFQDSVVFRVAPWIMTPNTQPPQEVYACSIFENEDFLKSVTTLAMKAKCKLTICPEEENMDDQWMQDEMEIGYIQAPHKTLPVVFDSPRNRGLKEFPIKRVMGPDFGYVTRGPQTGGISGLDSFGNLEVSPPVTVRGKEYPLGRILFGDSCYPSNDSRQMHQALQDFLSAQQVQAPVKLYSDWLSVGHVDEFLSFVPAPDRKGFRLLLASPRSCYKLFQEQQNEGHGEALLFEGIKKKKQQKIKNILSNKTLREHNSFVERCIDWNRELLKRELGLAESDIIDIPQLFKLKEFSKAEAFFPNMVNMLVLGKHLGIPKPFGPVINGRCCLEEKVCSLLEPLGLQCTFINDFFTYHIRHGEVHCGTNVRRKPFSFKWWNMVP

On to `COc1cc(Cc2cnc(N)nc2N)cc(OC)c1OC` [Trimethoprim], for which, in assay [1], the “decrease in fluorescence intensity of PAD4” value (shortened to “decrease”) was “little to no decrease”. Also, the IC50 in assay [2] (setting [5]) worked out at 7500 ± 200 µM.
On to `CN(C)[C@H]1C(O)=C(C(N)=O)C(=O)C2(O)C(O)=C3C(=O)c4c(O)ccc(Cl)c4C(C)(O)C3CC12` (stereo partly drawn) [Chlortetracycline], for which the “kinetic mechanism of PAD4 inhibition” value in assay [3] is “mixed inhibition; also recorded: mixed inhibitors”. The “reversibility of PAD4 inhibition” value in assay [4] is “reversible”.
Consider `CN(C)[C@H]1C(O)=C(C(N)=O)C(=O)C2(O)C(O)=C3C(=O)c4c(O)cccc4C(C)(O)C3CC12` (stereo partly drawn) [Tetracycline], for which, in assay [2] (setting [5]), the IC50 came to 100 ± 10 µM.
As to `[H]/N=C(/N)N[C@H]1[C@H](O)[C@@H](O)[C@H](O[C@@H]2O[C@@H](C)[C@](O)(C=O)[C@H]2O[C@@H]2O[C@@H](CO)[C@H](O)[C@@H](O)[C@@H]2NC)[C@@H](N/C(N)=N\[H])[C@@H]1O` [Streptomycin], the “kinetic mechanism of PAD4 inhibition” value in assay [3] is recorded as “competitive inhibitor”. In addition, the “reversibility of PAD4 inhibition” value in assay [4] is recorded as “reversible”. For the same compound, in assay [1], the “decrease” value is recorded as “strong decrease”. Moreover, the “deimination of the compound by PAD4 (substrate)” value in assay [2] is given as “not deiminated”.
In the case of `CN(Cc1cnc2nc(N)nc(N)c2n1)c1ccc(C(=O)N[C@@H](CCC(=O)O)C(=O)O)cc1` [Methotrexate], the “decrease” value in assay [1] is “Intermediate effects”. For the same compound, the IC50 in assay [2] (setting [5]) is > 10000 µM.
For the compound `CN(C)c1ccc(O)c2c1C[C@H]1C[C@H]3[C@H](N(C)C)C(O)=C(C(N)=O)C(=O)[C@@]3(O)C(O)=C1C2=O` [Minocycline], the Ki in assay [3] (read-out: Kii) was 630 ± 150 µM; in assay [3] (read-out: Kis), 180 ± 60 µM. The “kinetic mechanism of PAD4 inhibition” value in assay [3] is on record as “mixed type inhibitor; also recorded: mixed inhibitors”. Also, in assay [4], the “reversibility of PAD4 inhibition” value was “reversible”. The “decrease” value in assay [1] is recorded as “strong decrease”. In addition, the IC50 in assay [2] (setting [5]) and in assay [2] (standard assay) was 620 µM in each case.
Regarding `Cn1cnc([N+](=O)[O-])c1Sc1ncnc2nc[nH]c12` [Azathioprine], the IC50 in assay [2] (setting [5]) was > 7500 µM.
For the compound Sulfamethox-azole, the “decrease” value in assay [1] is listed as “little to no decrease”. Further, in assay [2] (setting [5]), the half-maximal inhibitory concentration (IC50) was > 10000 µM.
Turning to `Nc1ccc(S(=O)(=O)Nc2ccccn2)cc1` [Sulfapyridine], the “decrease” value in assay [1] is “little to no decrease”. Also, in assay [2] (setting [5]), the IC50 was > 10000 µM.
For `CCCC1CC(C(=O)NC(C(C)Cl)C2OC(SC)C(O)C(O)C2O)N(C)C1` (stereo not drawn) [Clindamycin], the “decrease” value in assay [1] is listed as “Intermediate effects”.
Azithromycin: in assay [1], the “decrease” value is reported as “little to no decrease”. Also, the IC50 in assay [2] (setting [5]) was > 10000 µM.
The corresponding values for `Nc1ccc(O)c(C(=O)O)c1` [5-Amino-salicylic Acid] are “little to no decrease” and > 10000 µM.
The corresponding values for Leflunomide are “Intermediate effects” and 2400 ± 800 µM.
